Values joined by “and” are separate entries in the source; they are usually repeats but may differ in a detail not shown here. Identical values can stand only once.
Legend:
rat hepatocytes = assay: Hepatocyte metabolic stability (clearance) assay, rat hepatocytes; details: for Negative Control Data, Heat Treated (HT), 15 min / Negative Control Data, Heat Treated (HT), 240 min: heat treated rat hepatocytes; for Negative Control Data, Heat Treated (HT), 15 min / Negative Control Data, Heat Treated (HT), 240 min / Negative Control Data, No cells (NC), 15 min / Negative Control Data, No cells (NC), 240 min / Ln Concentration, 0 min / Ln Concentration, 15 min / Ln Concentration, 30 min / Ln Concentration, 60 min / Ln Concentration, 120 min / Ln Concentration, 240 min / Linear Regression Best-Fit Slope (Ln concentration vs time): 1000 nM; for Negative Control Data, Heat Treated (HT), 15 min / Negative Control Data, Heat Treated (HT), 240 min / Negative Control Data, No cells (NC), 15 min / Negative Control Data, No cells (NC), 240 min: Ln concentration; for Negative Control Data, Heat Treated (HT), 15 min / Negative Control Data, Heat Treated (HT), 240 min / Negative Control Data, No cells (NC), 15 min / Negative Control Data, No cells (NC), 240 min / Ln Concentration, 0 min / Ln Concentration, 15 min / Ln Concentration, 30 min / Ln Concentration, 60 min / Ln Concentration, 120 min / Ln Concentration, 240 min: Rep 1-3; for Clin vitro: rat hepatocytes, 1 µM; for Ln Concentration, 0 min / Ln Concentration, 15 min / Ln Concentration, 30 min / Ln Concentration, 60 min / Ln Concentration, 120 min / Ln Concentration, 240 min / Linear Regression Best-Fit Slope (Ln concentration vs time): suspended rat hepatocytes; for Linear Regression Best-Fit Slope (Ln concentration vs time): time in min
Procedure: Information on the chemicals and materials used in the hepatocyte metabolic work can be found in Supplementary Text S9 and Table S3. In vitro evaluations of hepatocyte metabolic stability were performed in human and rat hepatocytes, as previously described. Briefly, pooled, cryopreserved hepatocyte suspensions were thawed, assessed for viability, and then diluted in William’s medium E containing dexamethasone and cell maintenance cocktail B to achieve a cell density of 50,000 cells/100 µL. The assay was started by adding hepatocyte suspensions to wells of 96-well polypropylene plates containing an equal volume of media with 2 µM of analyte (final assay concentration: 1 µM). Plates were placed in a 37 °C cell culture incubator (5% CO2) on a shaker set to 200 rpm. Time points assessed were T0, T15, T30, T60, T120, and T240 min. At each time point, the plates were removed from the shaker and the incubates were crashed with an equal volume of ice-cold ACN containing 1.2% FA and 16 ng/mL of ^13C3 -HFPO-DA. After chilling and centrifugation at 4122× g, the supernatants were transferred to new collection plates and stored at −70 °C until analysis for the parent compound on the Waters instrumentation described below. Immediately prior to analysis, samples were thawed, vortexed, and centrifuged at 4200× g, and then diluted 1:4 in 95:5 H2O/ACN with 2.5 mM of ammonium acetate. Negative controls, including no cell controls and metabolically inactivated hepatocytes, were run concurrently to assess the chemical stability over the time course.
Intrinsic clearance (Clint; hepatic clearance) calculations are detailed in Supplementary Text S9 [57].
Targeted, quantitative analysis of in vitro hepatocyte metabolic stability and plasma protein binding assay samples was conducted on a Waters Xevo-TQS micro mass spectrometer (Waters, Milford, MA, USA) ultra-high-performance liquid chromatography tandem mass spectrometry system (UPLC-MS/MS), modified with a PFAS analysis kit. Samples were analyzed in negative ion mode with UniSpray ionization. A CORTECS T3 column (Waters CORTECS, 3 × 100 mm, particle size 2.7 µm) was used for chromatographic separation with a flow rate of 0.6 mL/min and a temperature of 55 °C. Gradient elution was used with eluent A (95:5 H2O/ACN) and eluent B (95:5 ACN/H2O) with 2.5 mM of ammonium acetate. The gradient is available in Table S11. Additional details for MS parameters are found in Table S12 and monitored transitions are found in Table S13.
Table S2: Data processing parameters used with Sciex MarkerView 1.3.1.
Support ing Text S9: Hepatocyte Metabolic Stability Assay Materials, Chemicals, and Calculations
Pooled human and rat cryopreserved primary hepatocyte suspensions were both obtained from
BioIVT, a US Food and Drug Administration-licensed and inspected donor center, and produced using
non-transplantable tissue.
William’s E media, dexamet hasone (98% pure), and cell maintenance cocktail B were obtained from
Thermo Fisher Scientific (Waltham, MA, USA), the OptiThaw hepatocyte kit from Sekisui/Xenotech
(Tokyo, Japan), and the trypan blue s (Sekisui/ Xenotech, Tokyo, Japan) and the trypan blue solution from […]

hepatocytes = assay: Hepatic metabolite formation assay with non-targeted analysis; type: in vitro ADME, human and rat
Procedure: Extracts of plasma (50 µL), liver (10 mg), and hepatocyte metabolism assay media (10 µL) were analyzed by high-resolution, accurate mass non-targeted analysis (NTA) for the detection and identification of potential biotransformation products of HFPO-TeA. A mixture of ^13C-labeled PFAS compounds (MPAC-C-ES, Wellington Laboratories, Guelph, ON, Canada) were used as tracers. Samples were extracted, as detailed above (in vivo) and below (in vitro), and then analyzed in triplicate in a randomized order on a Sciex X500R QTOF. Additional information on NTA instrumental analysis and data processing parameters is presented in Supplementary Text S8 and Tables S8 and S10 [52]. […] A screening list of potential biotransformation products was generated using the U.S. EPA web application CTS: Chemical Transformation Simulator 1.0 and Biotransformer 3.0 [53, 54]. In some instances, molecular structure predictions were performed using MetFrag.
For the hepatic metabolite formation assays, the procedure described above was followed with the following modifications: assay concentrations of 50 and 100 µM were used, and samples were collected at times T0, T30, T60, and T120 min. Aliquots (10 µL) were combined with an equal volume of H2O. Non-targeted screening of potential biotransformation or degradation products of these samples was performed on the Sciex instrumentation described above.

Compound	Negative Control Data, Heat Treated (HT), 15 min (rat hepatocytes)	Negative Control Data, Heat Treated (HT), 240 min (rat hepatocytes)	Negative Control Data, No cells (NC), 15 min (rat hepatocytes)	Negative Control Data, No cells (NC), 240 min (rat hepatocytes)	Clin vitro (rat hepatocytes)	Ln Concentration, 0 min (rat hepatocytes)	Ln Concentration, 15 min (rat hepatocytes)	Ln Concentration, 30 min (rat hepatocytes)	Ln Concentration, 60 min (rat hepatocytes)	Ln Concentration, 120 min (rat hepatocytes)	Ln Concentration, 240 min (rat hepatocytes)	Linear Regression Best-Fit Slope (Ln concentration vs time) (rat hepatocytes)	abundance relative to HFPO-TeA (hepatocytes; T0 active hepatocyte preparation)	presence of predicted biotransformation products (non-targeted analysis) (hepatocytes; in vitro hepatocyte assays)
O=C(O)C(F)(OC(F)(F)C(F)(F)C(F)(F)F)C(F)(F)F (centres unmarked) [HFPO-DA, perfluoro-2-methyl-3-oxahexanoic acid]	4.4280 and 4.9483 and 5.2322	4.4378 and 4.5247 and 4.4650	4.4280 and 4.9483 and 5.2322	4.5318 and 4.4615 and 4.4489	0 µL/min/106 cells	4.5114 and 4.4660 and 4.4552	4.5017 and 4.4578 and 4.5341	4.4026 and 4.3249 and 4.4576	4.2774 and 4.4540 and 4.5417	4.3832 and 4.5273 and 4.3707	4.5604 and 4.5454 and 4.5567	0.0002303	–	–
O=C(O)C(F)(OC(F)(F)C(F)(OC(F)(F)C(F)(F)C(F)(F)F)C(F)(F)F)C(F)(F)F (centres unmarked) [HFPO-TA, perfluoro-(2,5-dimethyl-3,6-dioxanonanoic) acid]	4.1725 and 4.8897 and 5.4522	4.9004 and 4.9391 and 4.9107	4.1725 and 4.8897 and 5.4522	3.9230 and 4.2019 and 3.8754	0 µL/min/106 cells	4.5979 and 4.6454 and 4.5374	4.8189 and 4.7145 and 4.8521	4.7856 and 4.6050 and 4.6111	4.8438 and 4.7495 and 4.8027	4.6843 and 4.6317 and 4.5468	4.7393 and 4.9247 and 4.8505	0.0003164	< 1%	–
O=C(O)C(F)(OC(F)(F)C(F)(OC(F)(F)C(F)(OC(F)(F)C(F)(F)C(F)(F)F)C(F)(F)F)C(F)(F)F)C(F)(F)F (centres unmarked) [HFPO-TeA, perfluoro-(2,5,8-trimethyl-3,6,9-trioxadodecanoic) acid]	2.6401 and 2.4357 and 2.5979	3.3942 and 3.4965 and 3.9620	2.6401 and 2.4357 and 2.5979	3.6957 and 3.6025 and 3.5122	0 µL/min/106 cells	3.0306 and 2.9008 and 2.9997	3.0932 and 2.2706 and 2.9515	4.2083 and 3.3638 and 2.7617	3.2078 and 2.9997 and 2.8429	4.0404 and 3.2267 and 2.8611	4.3810 and 4.0785 and 4.0446	0.001258	–	None of the biotransformation products predicted using CTS were observed
